Active and inactive are the calls of the source. The rule behind the calls is not given here.
Columns and labels:
[1] = test system: HUVEC; assay: Antiproliferative activity against HUVEC grown in presence of growth factors after 48 hrs by spectrophotometry; assay type: functional, cell-based; conditions: Homo sapiens
[2] = test system: HUVEC; assay: Selectivity ratio of IC50 for HUVEC grown in absence of growth factors to IC50 for HUVEC grown in presence of growth factors; assay type: functional, Homo sapiens
[3] = test system: HUVEC; assay: Antiproliferative activity against HUVEC grown in absence of growth factors after 48 hrs by spectrophotometry; assay type: functional, cell-based; conditions: Homo sapiens
[4] = Inhibition of tubulin polymerization by spectrophotometry
[5] = test system: MCF7; assay: Antiproliferative activity against human MCF7 cells assessed after 48 hrs by spectrophotometry; assay type: functional, cell-based; conditions: MCF7, 48 h
[6] = test system: 786-0; assay: Antiproliferative activity against MDR-1 overexpressing human 786-0 cells; assay type: functional, cell-based
[7] = test system: 786-0; assay: Antiproliferative activity against MDR-1 overexpressing human 786-0 cells in presence of MDR1 inhibitor verapamil; assay type: functional, cell-based
[8] = test system: MDA-MB-231; assay: Antitumor activity against human MDA-MB-231 xenografted in mouse assessed as tumor growth inhibition at 150 mg/kg administered on day 1 and 5; assay type: functional, organism-based; design: dose 150 mg/kg
[9] = Drug uptake in tumor of MDA-MB-231 breast cancer BALB/c mouse model at 1 to 150 mg/kg, iv measured after 24 hrs; assay type: ADME, organism-based; design: dose 1-150 mg/kg, route intravenous; conditions: in vivo
[10] = Antiproliferative activity against human HAAE1 grown in absence of growth factors after 48 hrs by spectrophotometry; assay type: functional
[11] = Cytotoxicity against human A2780/ADR cells; assay type: functional, cell-based
[12] = test system: Calu-6; assay: Antiproliferative activity against human Calu6 after 48 hrs by spectrophotometry; assay type: functional, cell-based; conditions: Calu-6, 48 h
[13] = test system: DU-145; assay: Antiproliferative activity against human DU145 after 48 hrs by spectrophotometry; assay type: functional, cell-based; conditions: DU-145, 48 h
[14] = Aqueous solubility of the compound; assay type: physicochemical; conditions: buffer
[15] = test system: LoVo; assay: Antiproliferative activity against human LoVo after 48 hrs by spectrophotometry; assay type: functional, cell-based
[16] = Antiproliferative activity against human HAAE1 grown in presence of growth factors after 48 hrs by spectrophotometry; assay type: functional
[17] = Antiproliferative activity against human U87MG after 48 hrs by spectrophotometry; assay type: functional, U-87MG ATCC; conditions: U-87 MG
[18] = test system: Rattus norvegicus; assay: Half life in Sprague-Dawley rat at 6 umol/kg, iv; assay type: ADME, organism-based; conditions: in vivo
[19] = test system: SK-OV-3; assay: Antiproliferative activity against human SKOV3 after 48 hrs by spectrophotometry; assay type: functional, cell-based; conditions: SK-OV-3, 48 h
[20] = Cytotoxicity against human A2780cis cells; assay type: functional, cell-based; conditions: A2780cisR
[21] = test system: BT-549; assay: Antiproliferative activity against human BT549 after 48 hrs by spectrophotometry; assay type: functional, cell-based; conditions: BT-549, 48 h
[22] = test system: A-375; assay: Antiproliferative activity against human A375 after 48 hrs by spectrophotometry; assay type: functional, cell-based; conditions: A-375, 48 h
[23] = test system: MDA-MB-231; assay: Antiproliferative activity against human MDA-MB-231 after 48 hrs by spectrophotometry; assay type: functional, cell-based; conditions: MDA-MB-231, 48 h
[24] = test system: A2780; assay: Cytotoxicity against human A2780 cells; assay type: functional, cell-based
[25] = test system: AU565; assay: Antiproliferative activity against human AU565 after 48 hrs by spectrophotometry; assay type: functional, cell-based; conditions: AU565, 48 h
[26] = test system: Rattus norvegicus; assay: Volume of distribution at steady state in Sprague-Dawley rat at 6 umol/kg, iv; assay type: ADME, organism-based; conditions: in vivo
[27] = test system: Plasma; assay: Plasma protein binding in Sprague-Dawley rat at 6 umol/kg, iv; assay type: ADME, cell-free
[28] = test system: A-431; assay: Antiproliferative activity against human A431 after 48 hrs by spectrophotometry; assay type: functional, cell-based; conditions: A-431, 48 h
[29] = test system: MDA-MB-231; assay: Antitumor activity against human MDA-MB-231 xenografted in mouse assessed as tumor growth inhibition at 40 mg/kg administered on day 1 and 8 measured after 70 days; assay type: functional, organism-based; design: dose 40 mg/kg
[30] = test system: MDA-MB-231; assay: Antitumor activity against human MDA-MB-231 xenografted in mouse assessed as tumor growth inhibition at 10 mg/kg administered on day 1 and 5; assay type: functional, organism-based; design: dose 10 mg/kg

Row | Compound | IC50 ([1]; read-out: IC50) [nM] | Ratio IC50 [2] | IC50 [3] [nM] | IC50 [4] [nM] | IC50 [5] [nM] | other results
1 | COc1cc(C(=O)c2c(N)oc3c(O)c(OC)ccc23)cc(OC)c1OC | 1.9 | 4.6 | 8.8 |  |  | 
2 | COc1ccc2c(C(=O)c3cc(OC)c(OC)c(OC)c3)coc2c1 | 45 | 1.4 | 63 | 1600 | 55 | 
3 | CC(=O)O[C@H]1C(=O)[C@@]2(C)[C@H]([C@H](OC(=O)c3ccccc3)[C@]3(O)C[C@H](OC(=O)[C@H](O)[C@@H](NC(=O)c4ccccc4)c4ccccc4)C(C)=C1C3(C)C)[C@]1(OC(C)=O)CO[C@@H]1C[C@@H]2O [PACLITAXEL] |  |  |  |  |  | IC50 [6]: 31 nM; IC50 [7]: 4 nM
4 | COc1ccc2c(C(=O)c3cc(OC)c(OC)c(OC)c3)c(-c3ccc(OC)nc3)oc2c1 | 45 | 0.6 | 27 |  | 71 | 
5 | COc1cc(C(=O)c2c(NCCN(C)C)oc3c(O)c(OC)ccc23)cc(OC)c1OC | 29 | 1.2 | 36 |  |  | 
6 | COc1ccc(/C=C\c2cc(OC)c(OC)c(OC)c2)cc1OP(=O)(O)O |  |  |  |  |  | growth inhibition (GI) [8]: Active
7 | COc1cc(C(=O)c2coc3c(O)c(OC)ccc23)cc(OC)c1OC | 83 |  | 322 |  | 45 | 
8 | COC(=O)/C=C/c1oc2c(O)c(OC)ccc2c1C(=O)c1cc(OC)c(OC)c(OC)c1 | 0.38 | 6 | 2.3 |  |  | 
9 | COc1ccc(-c2oc3c(O)c(OC)ccc3c2C(=O)c2cc(OC)c(OC)c(OC)c2)cc1O | 1.7 | 2 | 3.4 | 800 | 4 | 
10 | COc1cc(C(=O)c2c(C)oc3c(O)c(OC)ccc23)cc(OC)c1OC | 0.31 |  | 25 | 3000 | 2.4 | Drug uptake [9]: 64%; IC50 [10]: 12 nM; IC50 [11]: 0.06 nM; IC50 [12]: 0.16 nM; IC50 [13]: 0.36 nM; solubility [14]: Insoluble; IC50 [15]: 0.24 nM; IC50 [16]: 0.1 nM; IC50 [17]: 0.41 nM; t1/2 [18]: 3.5 h; IC50 [19]: 0.59 nM; IC50 [20]: 0.01 nM; IC50 [21]: 0.34 nM; IC50 [22]: 1.5 nM; IC50 [23]: 0.63 nM; IC50 [24]: 0.03 nM; IC50 [25]: 5.8 nM; Vdss [26]: 7.1 L/kg
11 | COc1ccc2c(C(=O)c3cc(OC)c(OC)c(OC)c3)c(Br)oc2c1 | 510 | 0.6 | 309 |  |  | 
12 | COc1ccc(-c2sccc2C(=O)c2cc(OC)c(OC)c(OC)c2)cc1O |  |  |  | 1000 |  | 
13 | COc1cc(C(=O)c2c(-c3cnn(C)c3)oc3c(OC(C)C)c(OC)ccc23)cc(OC)c1OC | 665 | 0.6 | 419 |  | 42 | 
14 | COc1cc(C(=O)c2c(-n3cccc3)oc3c(O)c(OC)ccc23)cc(OC)c1OC |  |  | 3.3 |  |  | 
15 | COc1cc(C(=O)c2c(-c3cccs3)oc3c(O)c(OC)ccc23)cc(OC)c1OC | 0.31 | 1.2 | 0.36 |  | 0.5 | 
16 | COc1ccc2c(C(=O)c3cc(OC)c(OC)c(OC)c3)c(-c3ccc(O)cc3)oc2c1 | 30 | 1.1 | 34 | 2300 | 48 | 
17 | COc1cc(C(=O)c2c(-c3cnn(C)c3)oc3c(O)c(OC)ccc23)cc(OC)c1OC | 0.4 | 1.8 | 0.7 | 1300 | 1 | 
18 | COc1cc(C(=O)c2c(/C=C/C(N)=O)oc3c(O)c(OC)ccc23)cc(OC)c1OC | 2.6 | 0.9 | 2.3 |  |  | 
19 | COc1ccc2c(C(=O)c3cc(OC)c(OC)c(OC)c3)c(-c3ccc(OC)c(N)c3)oc2c1 | 32 | 1.4 | 44 | 1900 | 26 | 
20 | COc1ccc(/C=C\c2cc(OC)c(OC)c(OC)c2)cc1O [COMBRETASTATIN A4] |  |  | 3.9 |  |  | IC50 [1]: 3.6 nM; IC50 [12]: 0.94 nM; IC50 [13]: 4 nM; PPB [27]: 98.9%; t1/2 [18]: 0.7 h; IC50 [21]: 3.5 nM; IC50 [28]: 188 nM; IC50 [25]: 4.4 nM; Vdss [26]: 7.3 L/kg
21 | COc1cc(C(=O)c2c(-c3ccco3)oc3c(O)c(OC)ccc23)cc(OC)c1OC | 3.6 | 0.9 | 3.4 | 8700 | 0.6 | 
22 | COc1cc(C(=O)c2c(C#N)oc3c(O)c(OC)ccc23)cc(OC)c1OC | 1.1 | 2.7 | 3 |  |  | 
23 | COc1cc(C(=O)c2c(C)oc3c(OP(=O)([O-])[O-])c(OC)ccc23)cc(OC)c1OC.[Na+].[Na+] |  |  |  |  |  | growth inhibition (GI) [29]: Active; growth inhibition (GI) [30]: Active; solubility [14]: soluble
24 | COc1cc(C(=O)c2c(NCCO)oc3c(O)c(OC)ccc23)cc(OC)c1OC | 3.1 | 0.9 | 2.9 |  |  | 
25 | COc1ccc2c(C(=O)c3cc(OC)c(OC)c(OC)c3)c(-c3ccc4c(ccn4C)c3)oc2c1 | 41 | 0.8 | 32 | 1300 |  | 
26 | COc1ccc2c(C(=O)c3cc(OC)c(OC)c(OC)c3)c(N3CCN(C)CC3)oc2c1 | 484 | 0.8 | 405 |  | 215 | 
27 | CC[C@]1(O)C[C@H]2CN(CCc3c([nH]c4ccccc34)[C@@](C(=O)OC)(c3cc4c(cc3OC)N(C=O)[C@H]3[C@@](O)(C(=O)OC)[C@H](OC(C)=O)[C@]5(CC)C=CCN6CC[C@]43[C@@H]65)C2)C1 [VINCRISTINE] |  |  |  |  |  | IC50 [6]: 37 nM; IC50 [7]: 1.2 nM
28 | CC[C@]1(O)C[C@@H]2CN(CCc3c([nH]c4ccccc34)[C@@](C(=O)OC)(c3cc4c(cc3OC)N(C)[C@H]3[C@@](O)(C(=O)OC)[C@H](OC(C)=O)[C@]5(CC)C=CCN6CC[C@]43[C@@H]65)C2)C1 [VINBLASTINE] |  |  |  |  |  | IC50 [6]: 4.5 nM; IC50 [7]: 0.31 nM

Reference: ChEMBL document CHEMBL1821642, “Discovery of 7-hydroxy-6-methoxy-2-methyl-3-(3,4,5-trimethoxybenzoyl)benzo[b]furan (BNC105), a tubulin polymerization inhibitor with potent antiproliferative and tumor vascular disrupting properties” (J Med Chem, 2011)
